Test results from PubChem BioAssay (NCI).
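Where inhibition never reached the appropriate level, the endpoint shown equals the highest concentration tested. Otherwise, values were interpolated linearly from a five-concentration, 48-hour dose response in 96-well plates. Here, GI50 denotes the concentration required for 50% inhibition of growth. Definition used: TGI = concentration required for complete inhibition of growth.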

Key:
Assay in all cases: DTP human tumour cell line panel, 48 h
IGROV1 ovarian = tested on: IGROV1 ovarian
HL-60(TB) leukemia = tested on: HL-60(TB) leukemia
HCT-116 colon = tested on: HCT-116 colon
SNB-75 CNS = tested on: SNB-75 CNS
SNB-19 CNS = tested on: SNB-19 CNS
M14 melanoma = tested on: M14 melanoma
EKVX NSCLC = tested on: EKVX NSCLC
HCT-15 colon = tested on: HCT-15 colon
SK-MEL-2 melanoma = tested on: SK-MEL-2 melanoma
OVCAR-3 ovarian = tested on: OVCAR-3 ovarian

Row | Compound | TGI (IGROV1 ovarian) [µM] | TGI (HL-60(TB) leukemia) [µM] | TGI (HCT-116 colon) [µM] | TGI (SNB-75 CNS) [µM] | TGI (SNB-19 CNS) [µM] | TGI (M14 melanoma) [µM] | TGI (EKVX NSCLC) [µM] | TGI (HCT-15 colon) [µM] | TGI (SK-MEL-2 melanoma) [µM] | TGI (OVCAR-3 ovarian) [µM] | GI50 (IGROV1 ovarian) [µM] | GI50 (HL-60(TB) leukemia) [µM] | GI50 (HCT-116 colon) [µM] | GI50 (SNB-75 CNS) [µM] | GI50 (SNB-19 CNS) [µM] | GI50 (M14 melanoma) [µM] | GI50 (EKVX NSCLC) [µM] | GI50 (HCT-15 colon) [µM] | GI50 (SK-MEL-2 melanoma) [µM] | GI50 (OVCAR-3 ovarian) [µM]
1 | Cn1c(N)nc(=O)c2c1N(C1OC(CO)C(O)C1O)CN2Cc1ccccc1 (stereo not drawn) | > 100 | > 100 | > 100 | > 100 | > 100 | > 100 | > 100 | > 100 | > 100 | > 100 | – | – | – | – | – | – | – | – | – | –
2 | CC1=C(/C=C/C(C)=C/C=C/C(C)=C/C(=O)O)C(C)(C)CCC1 | > 100 | 59.3 | 64.2 | > 100 | > 84.6 | 71.5 | > 100 | 70.3 | 48.8 | 63.9 | – | – | – | – | – | – | – | – | – | –
3 | CCc1ccc(C(=Nc2ccc(N(C)C(=O)CN3CCN(C)CC3)cc2)c2c(O)[nH]c3ccc(C(=O)OC)cc23)cc1 | 1.11 | 1.01 | 1.12 | 1.52 | 2.09 | 1.69 | 2.36 | 1.25 | 2.83 | 1.96 | 0.0714 | 0.328 | 0.0995 | 0.17 | 0.775 | 0.368 | 0.788 | 0.277 | 1.23 | 0.538
4 | N#CC1(C#N)C2C=CC(c3coc4cccc2c34)C1(C#N)C#N (stereo not drawn) | 35.9 | 3.44 | 6.08 | 35.3 | 33.8 | 25.3 | 33 | 19.2 | 92.6 | 29.9 | – | – | – | – | – | – | – | – | – | –
5 | O=C(N/N=C/c1ccc(O)cc1O)c1cccc(Nc2ccnc(C(F)(F)F)c2)c1 | 27.7 | 2.98 | 20.5 | 52.5 | > 72.6 | 8.5 | 37.3 | 51.7 | 27.1 | 30.9 | 1.28 | 0.472 | 0.535 | 11.3 | 1.01 | 0.925 | 1.32 | 2.2 | 7.39 | 0.488
6 | CN(C)CCNc1c2ccccc2nc2oc3ccccc3c12 | 26 | 25.2 | 23.7 | 25.8 | 34.8 | 32.5 | 32.2 | 25 | 31.4 | 51 | 4.82 | 3.53 | 4.16 | 12.5 | 6.88 | 11.3 | 6.49 | 5.04 | 12.2 | 8.71
7 | Cc1cc(-c2ccccn2)cc(C)c1/C=C/c1cncc(-c2nn[nH]n2)c1 | > 25 | > 25 | > 25 | > 25 | > 25 | > 25 | > 25 | > 25 | > 25 | > 25 | > 25 | > 25 | > 25 | > 25 | > 25 | > 25 | > 25 | > 25 | > 25 | > 25
8 | CCCCCCCCCC(=O)OCC1OC(n2cc(F)c(=O)[nH]c2=O)C(NC(=O)OCc2ccccc2)C(OC(=O)CCCCCCCCC)C1O (stereo not drawn) | > 100 | 55.8 | 28.1 | > 100 | > 100 | > 100 | > 100 | > 100 | > 100 | 48.5 | – | – | – | – | – | – | – | – | – | –
9 | O=C(/C=C/C12c3ccccc3C(c3ccccc31)C1C(=O)NC(=O)C12)c1ccc(F)cc1 (stereo not drawn) | 5.9 | 2.1 | 3.41 | 2.92 | 3.18 | 3.96 | 4.45 | 4.2 | 4.23 | 3.15 | 2.09 | 0.0217 | 1.58 | 1.39 | 1.65 | 1.92 | 1.7 | 1.66 | 2.06 | 1.7
10 | [N-]=[N+]=NCCCn1c2c(c3ccc([N+](=O)[O-])cc3c1=O)C(=O)c1cc(F)ccc1-2 | > 30.2 | 1.64 | 3.3 | 29 | > 100 | 11.1 | > 100 | > 100 | > 75.1 | 26 | 2.3 | 0.202 | 0.388 | 2.13 | 1.05 | 1.13 | 61.2 | 5.86 | 9.24 | 3.76
11 | CC(C(N)C(=O)NC(C(=O)O)C1OC(n2ccc(=O)[nH]c2=O)C(O)C1O)C(O)c1ccc(O)cn1 (stereo not drawn) | > 100 | > 100 | > 100 | > 100 | > 100 | > 100 | > 100 | > 100 | > 100 | > 100 | – | – | – | – | – | – | – | – | – | –
12 | CC(=O)O[C@H]1[C@@H]2OC(=O)C(CSc3ccccc3)[C@@H]2C[C@H]2O[C@]2(C)CC/C=C(\C)CCC[C@@H]1C (stereo partly drawn) | 9.38 | 4.69 | 2.91 | 11.6 | 62.8 | 5.37 | 12.9 | 6.52 | 8.69 | 4.11 | 3.05 | 1.4 | 1.46 | 2.98 | 11.9 | 2.13 | 3.27 | 1.95 | 3.11 | 1.87
13 | CC(C)(C)c1ccc(OCCOCCOc2ccc(C(C)(C)C)cc2S(=O)(=O)Nc2ccc([N+](=O)[O-])cc2)c(S(=O)(=O)Nc2ccc([N+](=O)[O-])cc2)c1 | > 100 | > 100 | > 100 | > 100 | > 100 | > 100 | > 100 | > 100 | > 100 | > 100 | – | – | – | – | – | – | – | – | – | –
14 | COc1cc(C2=N/C(=C/c3cccs3)C(=O)O2)cc(OC)c1OC | > 100 | > 100 | > 100 | > 100 | > 100 | > 100 | > 100 | > 100 | > 100 | > 100 | – | – | – | – | – | – | – | – | – | –
15 | O=C1C2CCN(CC2)C1(CO)CO | > 100 | > 78.6 | 30.9 | > 81.8 | > 100 | 38.8 | 99.4 | 34.6 | > 100 | 31 | – | – | – | – | – | – | – | – | – | –
16 | Cc1cc2c(C(N)=O)c(N)n(-c3c(C)ccc(O)c3C)c2nc1C | 12 | > 100 | 15.2 | 8.3 | > 100 | 5.83 | 98.7 | 65.4 | 21.2 | 14.7 | 3.04 | 4.4 | 2.52 | 1.05 | 8.28 | 0.834 | 21.8 | 5.51 | 3.59 | 3.07
17 | COc1ccc(/C=C2\CCC(CCN(C)C)(C3=CCCC3)C2=O)cc1Br (stereo not drawn) | 14.7 | 4.63 | 17.1 | 17.5 | 22.1 | 3.34 | 8.62 | 15.5 | 22.2 | 19.3 | – | – | – | – | – | – | – | – | – | –
18 | Cc1ccc(C(=O)/C(=C\c2ccc([N+](=O)[O-])cc2)S(=O)Cc2ccc(Cl)cc2)cc1 (stereo not drawn) | 3.45 | 6.82 | 2.92 | 3.25 | 3.68 | 3.19 | 4.02 | 3.75 | 4.15 | 3.14 | 1.77 | 2.47 | 1.43 | 1.53 | 1.83 | 1.65 | 1.88 | 1.61 | 1.96 | 1.7
19 | O=C(N/N=C1\C(=O)N(c2nccs2)C(=O)C(=O)C1c1nc2ccccc2s1)c1ccccc1O (stereo not drawn) | > 100 | > 100 | > 100 | > 100 | > 100 | > 100 | > 100 | > 100 | > 100 | > 100 | – | – | – | – | – | – | – | – | – | –
20 | N#Cc1c(N)nc(N2CCOCC2)c(C#N)c1-c1ccccn1 | > 100 | > 100 | > 100 | > 100 | > 100 | > 100 | > 100 | > 100 | > 100 | > 100 | > 52.3 | > 100 | > 100 | > 88.5 | > 100 | > 100 | > 100 | > 100 | > 100 | > 100
21 | Cc1cn2c(/C=N/N=C(N)N)c(-c3ccccn3)nc2s1 | > 100 | > 100 | 25.8 | 19.3 | 35.8 | > 52.1 | 25.8 | 39.1 | 48.1 | 34.2 | 16 | 4.56 | 6.29 | 7.66 | 15.1 | 19.6 | 8.37 | 19.5 | 14 | 17.3
22 | Oc1c(Cl)cc(Cl)cc1C(c1cc(Cl)cc(Cl)c1O)C(Cl)(Cl)Cl | – | 10.3 | 3.67 | 17.4 | 15.8 | 10.1 | 4.51 | 13.8 | 12 | 10.8 | – | 3.25 | 1.32 | 3.75 | 3.23 | 3.11 | 1.61 | 0.825 | 2.72 | 2.4
